Measurements: patent US20250241897A1, “COMPOSITION FOR ERADICATING HELICOBACTER PYLORI” (HK INNO.N CORPORATION, priority 2018, published 2025)

What was measured:
[1] = Clinical study 1, Cohort 1: pharmacokinetic interaction of tegoprazan and amoxicillin/clarithromycin, multiple dose; assay type: in vivo, human
Experimental: To evaluate pharmacokinetic interaction of multiple-dose administration of single and combination of tegoprazan and amoxicillin/clarithromycin, a clinical study was designed in accordance with a randomized, open-label, and multiple-dose design.
A total of 24 subjects who had been determined eligible to participate in the study were randomly assigned in a 1:1 ratio to each one of the two groups. Each randomly-assigned group was administered with investigational medical products as arranged during each intervention period and underwent a clinical study as designed. In consideration of the half-life of each product, a 14-day wash-out period was given between the intervention periods.
A total of 24 subjects were divided into group 1 and group 2. During the first intervention period, subjects of group 1 (12 person) were repeatedly administered with 100 mg of tegoprazan twice a day for four days and administered once a day on the fifth day on which a pharmacokinetic clinical study was conducted. During the second intervention period after a 14-day wash-out period, they were repeatedly administered with 1000 mg of amoxicillin and 500 mg of clarithromycin twice a day for four days and administered once a day on the fifth day. During the third intervention period after a 14-day wash-out period, they were repeatedly administered with 100 mg of tegoprazan, 1000 mg of amoxicillin, and 500 mg of clarithromycin twice a day for six days and administered once a day on the seventh day. Following the last dose of each intervention period, pharmacokinetic blood samples were collected for 17 times over 72 hours in the first period, 14 times over 48 hours in the second period, and 19 times over 120 hours in the third period.
Drugs were administered to subjects of group 2 (12 person) in the reverse order to the way the study was conducted on group 1 in the first and second intervention periods and in the same order in the third intervention period. Pharmacokinetic blood samples were collected in the same manner as group 1.
The average plasma concentrations of tegoprazan, clarithromycin, and amoxicillin were measured and time-based plasma concentration and time-based drug concentration patterns were observed when tegoprazan was repeatedly administered alone, amoxicillin/clarithromycin were repeatedly administered and tegoprazan, amoxicillin, and clarithromycin were repeatedly administered in combination.
Pharmacokinetics of tegoprazan, amoxicillin, and clarithromycin were evaluated. Descriptive statistics of pharmacokinetic evaluation parameters were presented. Point estimates for geometric mean ratio between each group and 90% confidence interval were calculated from the log-converted primary pharmacokinetic evaluation parameters by using a linear mixed effect model.

intragastric pH = test: Clinical study 1, Cohort 2: 24-hour intragastric pH measurement on repeated co-administration; assay type: in vivo, human; conditions: with amoxicillin/clarithromycin
Text: To identify an effect of eradicating Helicobacter pylori in the present invention, a clinical study was designed in accordance with a randomized, open-label, active-controlled, parallel and multiple-dose design. A total of 221 patients were subjected to screening for this study. Out of them, 36 patients were registered thereto and the completed clinical results were obtained from 34 patients.
Particularly, the 36 patients above were divided into three patient groups (T1, T2 and R) and the clinical study was performed accordingly. […]
The T1 group was repeatedly given 50 mg of CJ-12420 and 1000 mg of amoxicillin/500 mg of clarithromycin twice a day for seven days; the T2 group was repeatedly given 100 mg of CJ-12420 and 1000 mg of amoxicillin/500 mg of clarithromycin twice a day for seven days; and the R group was repeatedly given 40 mg of pantoprazole and 1000 mg of amoxicillin/500 mg of clarithromycin twice a day for seven days. An intragastric pH was measured from all the subjects on Day 1 for 24 hours, and the intragastric pH was also measured for 24 hours on Day 1 and Day 7 of repeated administration. Also, a negative conversion rate was calculated upon a follow-up visit paid by subjects who were identified to be H. pylori positive on the UBT test during screening, and stability evaluation was performed according to a predetermined schedule. […]

[2] = clarithromycin 500 mg with amoxicillin 1000 mg twice a day, with versus without tegoprazan 100 mg
[3] = tegoprazan 100 mg twice a day, combination with amoxicillin 1000 mg/clarithromycin 500 mg versus alone

Compound | AUC of clarithromycin when administered in combination with tegoprazan [1, 2] | Cmax of clarithromycin when administered in combination with tegoprazan [1, 2] | increase of AUC of tegoprazan when administered in combination with amoxicillin/clarithromycin [1, 3] [times] | increase of Cmax of tegoprazan when administered in combination with amoxicillin/clarithromycin [1, 3] [times] | time to increase pH to 6 or more right after the administration (intragastric pH)
CC[C@H]1OC(=O)[C@H](C)[C@@H](O[C@H]2C[C@@](C)(OC)[C@@H](O)[C@H](C)O2)[C@H](C)[C@@H](O[C@@H]2O[C@H](C)C[C@H](N(C)C)[C@H]2O)[C@](C)(OC)C[C@@H](C)C(=O)[C@H](C)[C@@H](O)[C@]1(C)O [clarithromycin, (3R,4S,5S,6R,7R,9R,11R,12R,13S,14R)-6-[(2S,3R,4S,6R)-4-(dimethylamino)-3-hydroxy-6-methyloxane-2-yl]oxy-14-ethyl-12,13-dihydroxy-4-[(2R,4R,5S,6S)-5-hydroxy-4-methoxy-4,6-dimethyloxane-2-yl]oxy-7-methoxy-3,5,7,9,11,13-hexamethyl-oxacyclotetradecane-2,10-dione, reference compound] | showed a tendency to increase | showed a tendency to increase |  |  | 
Cc1nc2c(OC3CCOc4cc(F)cc(F)c43)cc(C(=O)N(C)C)cc2[nH]1 (centres unmarked) [Tegoprazan, 4-[(5,7-difluoro-3,4-dihydro-2H-chromene-4-yl)oxy]-N,N,2-trimethyl-1H-benzimidazole-6-carboxamide] |  |  | 2.70 | 2.24 | two
